Source: patent publication US5849525A, “Compositions corresponding to a proton-coupled peptide transporter and methods of making and using same” (Brigham and Women's Hospital, Inc., priority 1995, dated 1998)
Blank lines part the entries; values can stand above or below the molecule they belong to. Square brackets hold non-standard residues; d marks the D form. Peptide text beside a SMILES is read from it. Sar = CNCC(=O)O

What was measured:
[1] = target: T1, proton-coupled peptide transporter (Oryctolagus cuniculus, UniProt P36836); experiment: Two-electrode voltage clamp of Xenopus laevis oocytes injected with transporter cRNA: substrate-evoked inward currents and Km; type: cell-based, rabbit; details: uptake solution pH 5.5
T1 construct: Xenopus laevis oocytes were injected with cRNA coding the proton-coupled peptide transporter; expressed in transfected cells; host or cells: Xenopus laevis oocytes injected with cRNA transcribed in vitro from the cloned cDNA
T1 sequence (P36836 1-707): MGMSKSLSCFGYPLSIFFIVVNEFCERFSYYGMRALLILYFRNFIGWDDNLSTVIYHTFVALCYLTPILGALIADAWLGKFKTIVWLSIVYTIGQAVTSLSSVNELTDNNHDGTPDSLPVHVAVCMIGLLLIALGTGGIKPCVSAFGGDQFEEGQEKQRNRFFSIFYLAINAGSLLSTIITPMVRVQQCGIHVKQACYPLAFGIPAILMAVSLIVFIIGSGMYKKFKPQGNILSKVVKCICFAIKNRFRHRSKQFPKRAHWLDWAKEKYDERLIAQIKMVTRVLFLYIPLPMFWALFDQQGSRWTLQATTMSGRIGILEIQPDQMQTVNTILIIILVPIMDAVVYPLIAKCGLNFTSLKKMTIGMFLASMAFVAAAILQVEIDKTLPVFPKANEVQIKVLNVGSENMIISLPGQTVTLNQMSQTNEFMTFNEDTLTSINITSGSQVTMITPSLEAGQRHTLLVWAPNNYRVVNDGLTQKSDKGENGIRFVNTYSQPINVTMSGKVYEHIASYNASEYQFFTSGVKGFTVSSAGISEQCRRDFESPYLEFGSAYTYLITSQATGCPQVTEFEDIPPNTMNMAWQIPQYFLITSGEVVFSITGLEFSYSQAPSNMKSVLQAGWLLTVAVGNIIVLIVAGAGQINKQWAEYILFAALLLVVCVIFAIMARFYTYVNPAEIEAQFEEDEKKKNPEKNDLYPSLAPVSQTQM
Excerpt: These oocytes were subjected to two electrode voltages clamp analysis (Gene Clamp 500, Axon Instruments, California) in the manner described in Kanaisy & Hediger, M. A. Nature 360, 467-71 (1992).
FIG. 9 depicts electrophysiological measurements of transformed cocytes as a percent of glycyl-sarcosine evoked current. Data representing glycyl-sarcosine are depicted as a solid black bar. Data representing peptide are depicted with dotted bars. Data representing antibiotics are depicted with hatched bars.
By altering peptide concentrations, current amplitudes for different compositions, Km values were determined.

[2] = target: proton-coupled peptide transporter derived from rabbit (rabbit)
[3] = target: proton-coupled peptide transporter derived from rabbit (rabbit); remark: listed apart in the source
[4] = target: T1, proton-coupled peptide transporter; experiment: Uptake of C14-glycyl-sarcosine by Xenopus laevis oocytes injected with rabbit jejunum poly(A)+ RNA or transporter cRNA; type: cell-based; details: 100 μM C14-Gly-Sar, 1 hour, pH 5.5
Procedure: This example describes the uptake of radiolabeled glycyl-sarcosine (C^14 -Gly-Sar) by Xenopus laevis oocytes injected with poly(A)^+ RNA from rabbit jejunum or with cRNA synthesized by in vitro transcription of proton-coupled peptide transporter cDNA.
All uptakes in this and the following figures were performed with 6-8 oocytes, 3 days after injection. RNA-injected oocytes were injected with 25 ng cRNA in 50 nl.
Oocytes injected with cRNA coding a proton-coupled peptide transporter were incubated for 1 hour in uptake solution (100 mM NaCl, 2 mM KCl 1 mM MgCl2, 1 mM CaCl2, 3 mM HEPES, 3 mM MES, 3 mM Tris, pH 5.5) in the presence of 100 μM C^14 -glycol-sarcosine (specific radioactivity, 112 mCi/mmol, custom synthesized by the Radiochemical Center, Amersham, U.K.). The oocytes were rinsed with ice-cold washing solution (uptake solution with pH adjusted to 7.5 with Tris base) and the radioactivity of each oocyte was measured by scintillation counting.

[5] = target: T1, proton-coupled peptide transporter; experiment: Hybrid depletion of rabbit small intestine poly(A)+ RNA with antisense/sense DNA oligonucleotide before oocyte injection, glycyl-sarcosine uptake; type: cell-based; details: oocytes receiving rabbit poly(A)+ RNA without sense or antisense nucleic acid
Excerpt: This example describes hybrid depletion of rabbit small intestine poly(A)^+ RNA before injection into Xenopus laevis oocytes. A first admixture was formed of rabbit small intestine derived poly(A)^+ RNA and an antisense DNA oligonucleotide corresponding to the 5'-end coding region of cDNA corresponding to the proton-coupled peptide transporter.
A second admixture was formed of rabbit small intestine derived poly(A)^+ RNA and a sense DNA oligonucleotide corresponding to the same region as the antisense DNA. Both DNAs were twenty-three nucleotides in length. Rabbit jejunum poly(A)^+ RNA (0.5 μg/μl) was incubated with the oligonucleotide (0.25 μg/μl in the presence of 50 mM NaCl at 42° C. for one hour and then injected into oocytes. The uptake of the peptide, glycyl-sarcosine, was measured three days after injection.

[6] = target: T1, proton-coupled peptide transporter; experiment: C14-glycyl-sarcosine uptake in cRNA-transformed oocytes in sodium-free or chloride-free solutions and at different pH; type: cell-based, rabbit
Excerpt: This example describes the stoichiometry and voltage dependence of the proton-coupled peptide transporter. Four days after transformation with cRNA coding the proton-coupled peptide transporter, Xenopus laevis oocytes were examined in the presence of 1 mMC^14 -glycyl-sarcosine in standard uptake solution (pH 5.5), modified to be sodium or chloride ion free.
In sodium-free solutions, the sodium chloride was replaced with choline-chloride. In chloride free solutions, the sodium chloride was replaced with sodium nitrate.
Glycyl-sarcosine uptake was determined from the slope of the time-dependence of 1 to 5 minutes uptake. The results are depicted in bar graph form in FIG. 10. […] That is, the presence of or absence of sodium ion and the presence or absence of chloridion had little or no effect on glycyl-sarcosine uptake. In each instance the uptake was approximately 1000 pmol glycyl-sarcosine.
In this example Xenopus laevis oocytes transformed with cRNA coding the proton-coupled peptide transporter of the preceding example were evaluated for C^14 -glycyl-sarcosine uptake in the standard uptake solutions modified to different pH. Glycyl-sarcosine uptake was determined from the slope of time-dependence of 1 to 5 minute uptakes.

[7] = target: T1, proton-coupled peptide transporter; experiment: Intracellular pH (pH-sensitive microelectrode) and membrane potential of cRNA-transformed oocytes; type: cell-based, rabbit; details: pHo 5.5 solution, Gly-Sar 10 mM; for membrane potential Vm after application: depolarized from -20 mV
Excerpt: The example describes hydrogen ion cotransport by Xenopus laevis oocytes transformed with cRNA coding a proton-coupled peptide transporter. Transformed Xenopus laevis oocytes of Example 5 and 6 were implanted with microelectrodes and membrane potential set with electrodes.
Internal pH measurements were taken with microelectrodes, silanized borosilicate pipettes with tips filled with a hydrogen ionophore (I-cocktail B, Fluka). […] After washing with uptake solution without glycyl-sarcosine, each oocyte was clamped at this membrane potential. […] The equation used to calculate the electrochemical potential difference for H^+ (ΔμH) was ΔμH +=RT 1n ([H^+ ] i/[H^+ ]o)+zF (Vi -Vo) and that for Gly-Sar (ΔμGly-Sar) was ΔμGly-Sar =RT 1n ([Gly-Sar] i/ [Gly-Sar]o), where; R is the gas constant, T the absolute temperature (295° K.), F is Faraday's constant, pHi and pHo the intra- and extracellular pH, Gly-Sari and Gly-Saro, the intra-and extracelluar Gly-Sar concentrations, and z the valency.
Oocytes were initially kept in pH 7.4 medium (96 mM NaCl, 1 mM KCl, 1.8 mM CaCl2, 1.0 mM MgCl2 and 5 HEPES). […] In water-injected oocytes, lowering pHo from 7.4 to 5.5 caused a continuous pHi decrease which was not dependent on the expression of the proton-coupled peptide transporter.

[8] = target: T1, proton-coupled peptide transporter; experiment: Stoichiometry (uptake versus net charge flux) and cumulative C14-glycyl-sarcosine uptake in cRNA-transformed oocytes; type: cell-based, rabbit
Procedure: Internal pH measurements were taken with microelectrodes, silanized borosilicate pipettes with tips filled with a hydrogen ionophore (I-cocktail B, Fluka). The membrane potential was measured in uptake solution (pH 5.5) containing 1 mM glycyl-sarcosine. After washing with uptake solution without glycyl-sarcosine, each oocyte was clamped at this membrane potential. […] The equation used to calculate the electrochemical potential difference for H^+ (ΔμH) was ΔμH +=RT 1n ([H^+ ] i/[H^+ ]o)+zF (Vi -Vo) and that for Gly-Sar (ΔμGly-Sar) was ΔμGly-Sar =RT 1n ([Gly-Sar] i/ [Gly-Sar]o), where; R is the gas constant, T the absolute temperature (295° K.), F is Faraday's constant, pHi and pHo the intra- and extracellular pH, Gly-Sari and Gly-Saro, the intra-and extracelluar Gly-Sar concentrations, and z the valency.
This 1:1 coupling ratio is consistent with analysis of the coupling ratio based on thermodynamic considerations. Cumulative uptake of C^14 -glycyl-sarcosine was measured as depicted in FIG. 14.
Data represent the average of the uptakes from 20-24 oocytes after subtraction of the uptakes of water-injected oocytes. After a ten hour incubation in 1 mM non-radiolabeled 1 mM glycyl-sarcosine, the ^14 C-glycyl-sarcosine influx was 1754±403 (n=7) pmol/oocyte.

Xenopus laevis oocytes = experiment: Thin-layer chromatography of solubilized oocytes incubated in 14C-Gly-Sar (hydrolysis); type: in vitro ADME; details: 1 mM 14C-Gly-Sar, pH 5.5, seven hours
[9] = substrate: CC1(C)S[C@@H]2[C@H](NC(=O)C3(N)CCCCC3)C(=O)N2[C@H]1C(=O)O; experiment: cells, lysate or membranes; details: other: current amplitudes at altered substrate concentrations, pH 5.5, cRNA-injected oocytes
[10] = substrate: NCC(=O)NCC(=O)NCC(=O)O; experiment: cells, lysate or membranes; details: other: current amplitudes at altered substrate concentrations, pH 5.5, cRNA-injected oocytes
[11] = substrate: CC(C)C[C@H](NC(=O)CN)C(=O)O; experiment: cells, lysate or membranes; type: cell-based, rabbit; details: other: current amplitudes at altered substrate concentrations, pH 5.5, cRNA-injected oocytes
[12] = substrate: CN(CC(=O)O)C(=O)CN; experiment: cells, lysate or membranes; type: cell-based, rabbit; details: other: current amplitudes at altered substrate concentrations, pH 5.5, cRNA-injected oocytes
[13] = substrate: C[C@H](N)C(=O)N[C@@H](CC(=O)O)C(=O)O; experiment: cells, lysate or membranes; type: cell-based, rabbit; details: other: current amplitudes at altered substrate concentrations, pH 5.5, cRNA-injected oocytes

Molecule: CC1(C)S[C@@H]2[C@H](NC(=O)C3(N)CCCCC3)C(=O)N2[C@H]1C(=O)O [Cyclacillin]
- substrate-evoked inward current [1]: inward current

Molecule: CC(C)C[C@H](NC(=O)CN)C(=O)O [Glycyl-leucine]
- substrate-evoked inward current [1]: inward current

Molecule: CN(CC(=O)O)C(=O)CN [Glycyl-sarcosine, glycyl-sarcosine] (H-Gly-[Sar]-OH)
- substrate-evoked inward current [1]: strongest current
- uptake of glycyl-sarcosine ([4]; oocytes receiving rabbit jejunum poly(A)+ RNA): less than 20 pmol
- uptake of glycyl-sarcosine ([4]; oocytes receiving transporter cRNA): ~200 pmol
- uptake of glycyl-sarcosine [5]: approximately 8 pmol
- glycyl-sarcosine uptake ([6]; 1 mM C14-glycyl-sarcosine, pH 5.5, presence or absence of sodium or chloride ion): approximately 1000 pmol
- pH of maximum glycyl-sarcosine uptake ([6]; standard uptake solutions modified to different pH): 5.5
- membrane potential Vm after application [7]: +15 mV
- effect on intracellular pH (pHi) ([7]; listed as Gly-Sar): large intracellular acidification
- effect on intracellular pH (pHi) ([7]; listed as glycyl-sarcosine): decrease in pH
- time to thermodynamic equilibrium of cumulative uptake ([8]; C14-glycyl-sarcosine, cRNA-transformed oocytes): approximately eight
- 14C-glycyl-sarcosine influx ([8]; after ten hour incubation in 1 mM non-radiolabeled glycyl-sarcosine, n=7): 1754±403 pmol/oocyte
- fraction of intracellular 14C-label that is hydrolyzed glycyl-sarcosine (Xenopus laevis oocytes): no more than one third

Molecule: CC1=C(C(=O)O)N2C(=O)[C@@H](NC(=O)[C@H](N)c3ccc(O)cc3)[C@H]2SC1 [cefadroxil]
- substrate-evoked inward current [1]: Significant currents

B1: proton-coupled peptide transporter (Oryctolagus cuniculus) (protein)
chain: MGMSKSLSCFGYPLSIFFIVVNEFCERFSYYGMRALLILYFRNFIGWDDNLSTVIYHTFVALCYLTPILGALIADAWLGKFKTIVWLSIVYTIGQAVTSLSSVNELTDNNHDGTPDSLPVHVAVCMIGLLLIALGTGGIKPCVSAFGGDQFEEGQEKQRNRFFSIFYLAINAGSLLSTIITPMVRVQQCGIHVKQACYPLAFGIPAILMAVSLIVFIIGSGMYKKFKPQGNILSKVVKCICFAIKNRFRHRSKQFPKRAHWLDWAKEKYDERLIAQIKMVTRVLFLYIPLPMFWALFDQQGSRWTLQATTMSGRIGILEIQPDQMQTVNTILIIILVPIMDAVVYPLIAKCGLNFTSLKKMTIGMFLASMAFVAAAILQVEIDKTLPVFPKANEVQIKVLNVGSENMIISLPGQTVTLNQMSQTNEFMTFNEDTLTSINITSGSQVTMITPSLEAGQRHTLLVWAPNNYRVVNDGLTQKSDKGENGIRFVNTYSQPINVTMSGKVYEHIASYNASEYQFFTSGVKGFTVSSAGISEQCRRDFESPYLEFGSAYTYLITSQATGCPQVTEFEDIPPNTMNMAWQIPQYFLITSGEVVFSITGLEFSYSQAPSNMKSVLQAGWLLTVAVGNIIVLIVAGAGQINKQWAEYILFAALLLVVCVIFAIMARFYTYVNPAEIEAQFEEDEKKKNPEKNDLYPSLAPVSQTQM
notes: Xenopus laevis oocytes were injected with cRNA coding the proton-coupled peptide transporter; expressed in transfected cells; host or cells: Xenopus laevis oocytes injected with cRNA transcribed in vitro from the cloned cDNA
- Km [9]: 137 µM
- Km [10]: 5100 µM
- Km [11]: 81 µM
- Km [12]: 1900 µM
- Km [13]: 143 µM

Second part, the molecule after the results:

- Km from current amplitudes [2]: 1900 µM
- uptake of C14-glycyl-sarcosine by oocytes [3]: 200 pmol
Molecule: glycyl-sarcosine (peptide)

- effect on intracellular pH (pHi) [7]: no detectable response
- membrane potential Vm after application [7]: no detectable response
Molecule: NCC(=O)O [glycine]

- substrate-evoked inward current [1]: Significant currents
Molecule: CC1=C(C(=O)O)N2C(=O)[C@@H](NC(=O)[C@H](N)C3=CCC=CC3)[C@H]2SC1 [cephradine]
